According to the supplement of paper PMC10307832:

Legend:
Test in all cases: relative viability (nuclei count vs DMSO), 5 days (fraction); higher = more cells survive
Wnt-C59 + Dasatinib = compound: CC1=NC=CC(=C1)C2=CC=C(C=C2)CC(=O)NC3=CC=C(C=C3)C4=CN=CC=C4 [Wnt-C59] + Cc1nc(Nc2ncc(C(=O)Nc3c(C)cccc3Cl)s2)cc(N2CCN(CCO)CC2)n1 [Dasatinib] (partner 0.075 µM)
In short: (§1)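 Relative viability divides the nuclei count in treated wells by that in vehicle wells. Lung cancer cell lines were seeded in 1536-well plates, dosed by pin tool the next day, and fixed and stained after 5 days in one step with final 0.05% Triton X-100, 1% formaldehyde and 1 ug/ml Hoechst. Dosing was a single drug or a fixed anchor-drug dose plus five library-drug doses (not always all listed) in √10 steps, and values are medians of duplicate plates imaged at 4×.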

Lapatinib + OSI-027 = compound: CS(=O)(=O)CCNCc1ccc(-c2ccc3ncnc(Nc4ccc(OCc5cccc(F)c5)c(Cl)c4)c3c2)o1 [Lapatinib] + COc1cccc2cc(-c3nc([C@H]4CC[C@H](C(=O)O)CC4)n4ncnc(N)c34)[nH]c12 [OSI-027] (partner 0.5 µM)
In short: as §1

Lapatinib + Tozasertib = compound: CS(=O)(=O)CCNCc1ccc(-c2ccc3ncnc(Nc4ccc(OCc5cccc(F)c5)c(Cl)c4)c3c2)o1 [Lapatinib] + Cc1cc(Nc2cc(N3CCN(C)CC3)nc(Sc3ccc(NC(=O)C4CC4)cc3)n2)n[nH]1 [Tozasertib] (partner 0.1 µM)
In short: as §1

Lapatinib = compound: CS(=O)(=O)CCNCc1ccc(-c2ccc3ncnc(Nc4ccc(OCc5cccc(F)c5)c(Cl)c4)c3c2)o1 [Lapatinib]
In short: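 Lung cancer cell lines in 1536-well plates were exposed by pinning to five library-drug doses (not always all listed) √10 apart, following an overnight hold at 37 °C. MetaXpress counted Hoechst-stained nuclei from 4× images taken after 5 days without medium change. Viability is the median ratio of treated-well to vehicle-well nuclei across plates. Plates required control CV below 25% and at least one doubling.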

| Cell Line | relative viability (Wnt-C59 + Dasatinib; first compound 0.001 µM) | relative viability (Wnt-C59 + Dasatinib; first compound 0.01 µM) | relative viability (Wnt-C59 + Dasatinib; first compound 0.03162 µM) | relative viability (Wnt-C59 + Dasatinib; first compound 0.1 µM) | relative viability (Lapatinib + OSI-027; first compound 0.06325 µM) | relative viability (Lapatinib + OSI-027; first compound 0.2 µM) | relative viability (Lapatinib + OSI-027; first compound 0.6325 µM) | relative viability (Lapatinib + OSI-027; first compound 2 µM) | relative viability (Lapatinib + Tozasertib; first compound 0.06325 µM) | relative viability (Lapatinib + Tozasertib; first compound 0.2 µM) | relative viability (Lapatinib + Tozasertib; first compound 0.6325 µM) | relative viability (Lapatinib + Tozasertib; first compound 2 µM) | relative viability (Lapatinib; 0.02 µM) | relative viability (Lapatinib; 0.06325 µM) | relative viability (Lapatinib; 0.2 µM) | relative viability (Lapatinib; 0.6325 µM) | relative viability (Lapatinib; 2 µM) | relative viability (Lapatinib; 2 µM, anchor plate) | relative viability (Lapatinib + OSI-027; first compound 0.02 µM) | relative viability (Lapatinib + Tozasertib; first compound 0.02 µM) |
| --- | --- | --- | --- | --- | --- | --- | --- | --- | --- | --- | --- | --- | --- | --- | --- | --- | --- | --- | --- | --- |
| NCI-H3122 | 0.824 | 0.951 | 0.893 | 0.894 | 0.556 | 0.962 | 0.902 | 0.893 | 0.366 | 0.479 | 0.341 | 0.349 | 0.912 | 0.981 | 0.992 | 0.965 | 1 | 1.03 |  |  |
| PC-3 [JPC-3] | 1.01 | 1.05 | 1.13 | 1.07 | 0.624 | 0.725 | 0.756 | 0.565 | 0.83 | 0.909 | 0.803 | 0.506 |  | 1 | 0.991 | 0.977 | 0.755 | 0.46 | 0.73 | 0.876 |
| PC-14 | 0.309 | 0.257 | 0.242 | 0.241 | 0.743 | 0.824 | 0.794 | 0.152 | 0.604 | 0.638 | 0.551 | 0.356 | 0.914 | 0.954 | 0.965 | 0.958 | 0.644 | 0.343 | 0.464 |  |
| RERF-LC-KJ | 0.866 | 0.847 | 1.04 | 0.79 | 0.344 | 0.424 | 0.401 | 0.315 | 0.425 | 0.436 | 0.413 | 0.337 | 0.992 | 0.88 | 0.905 | 0.826 | 0.737 | 0.861 | 0.532 | 0.525 |
| SK-LU-1 | 0.184 | 0.187 | 0.198 | 0.187 | 0.219 | 0.286 | 0.353 | 0.324 | 0.306 | 0.3 | 0.29 | 0.235 | 0.799 | 0.89 | 1.01 | 1.11 | 1.03 | 0.85 | 0.292 | 0.32 |
| SK-MES-1 | 0.393 | 0.264 | 0.39 | 0.337 | 0.453 | 0.6 | 0.578 | 0.256 | 0.996 | 1.07 | 0.943 | 0.495 | 0.94 | 0.902 | 0.886 | 0.776 | 0.462 | 0.497 | 0.472 | 0.894 |
| SW 900 | 0.545 | 0.708 | 0.768 | 0.624 | 0.576 | 0.532 | 0.496 | 0.488 | 0.35 | 0.374 | 0.298 | 0.276 |  | 0.765 | 0.958 | 0.836 | 0.712 |  |  |  |
| SW 1573 | 0.557 | 0.699 | 0.67 | 0.314 | 0.379 | 0.612 | 0.735 | 0.635 | 0.164 | 0.143 | 0.12 | 0.159 | 0.952 | 0.896 | 0.992 | 1.06 | 0.896 | 1.12 | 0.626 | 0.121 |
